# According to patent EP4748847A1, “PEPTIDE COMPLEX HAVING VEGFR -2 AGONIST ACTIVITY” (Peptidream Inc, priority 2023, dated 2025):
# *1 amine or outer side, *2 acyl side, *3 side chain or, on linkers, in order; H or OH if unused. Where a SMILES comes first, the peptide text is derived from it. Bridges are numbered along the chain shown (N, C = ends). Roman numbers before positions name the chains, in order. [ ]: non-standard residue; d: D form. The star is where a group is joined. CO(CH2)2(OCH2CH2)17CO = O=C(CCOCCOCCOCCOCCOCCOCCOCCOCCOCCOCCOCCOCCOCCOCCOCCOCCOCCC(=O)[*:2])[*:1]; X2 = O=C(OCCOCCOCCOCCOCCOCCOCCOCCOCCOCCOCCOCCOC(=O)[*:2])[*:1]; PEG12 = NCCOCCOCCOCCOCCOCCOCCOCCOCCOCCOCCOCCOCCC(=O)O; Phe(4-guanidino) = N=C(N)Nc1ccc(C[C@H](N)C(=O)O)cc1; hTyr = N[C@@H](CCc1ccc(O)cc1)C(=O)O; tBuAla = CC(C)(C)C[C@H](N)C(=O)O; Chg = N[C@H](C(=O)O)C1CCCCC1; Tle = CC(C)(C)[C@H](N)C(=O)O; Carboxymethyl = O=C(O)C*
# Target: T1, VEGFR-2 (Homo sapiens, UniProt P35968)
# T1 construct: endogenous in cells; host or cells: HUVEC
# T1 sequence (P35968 20-1356): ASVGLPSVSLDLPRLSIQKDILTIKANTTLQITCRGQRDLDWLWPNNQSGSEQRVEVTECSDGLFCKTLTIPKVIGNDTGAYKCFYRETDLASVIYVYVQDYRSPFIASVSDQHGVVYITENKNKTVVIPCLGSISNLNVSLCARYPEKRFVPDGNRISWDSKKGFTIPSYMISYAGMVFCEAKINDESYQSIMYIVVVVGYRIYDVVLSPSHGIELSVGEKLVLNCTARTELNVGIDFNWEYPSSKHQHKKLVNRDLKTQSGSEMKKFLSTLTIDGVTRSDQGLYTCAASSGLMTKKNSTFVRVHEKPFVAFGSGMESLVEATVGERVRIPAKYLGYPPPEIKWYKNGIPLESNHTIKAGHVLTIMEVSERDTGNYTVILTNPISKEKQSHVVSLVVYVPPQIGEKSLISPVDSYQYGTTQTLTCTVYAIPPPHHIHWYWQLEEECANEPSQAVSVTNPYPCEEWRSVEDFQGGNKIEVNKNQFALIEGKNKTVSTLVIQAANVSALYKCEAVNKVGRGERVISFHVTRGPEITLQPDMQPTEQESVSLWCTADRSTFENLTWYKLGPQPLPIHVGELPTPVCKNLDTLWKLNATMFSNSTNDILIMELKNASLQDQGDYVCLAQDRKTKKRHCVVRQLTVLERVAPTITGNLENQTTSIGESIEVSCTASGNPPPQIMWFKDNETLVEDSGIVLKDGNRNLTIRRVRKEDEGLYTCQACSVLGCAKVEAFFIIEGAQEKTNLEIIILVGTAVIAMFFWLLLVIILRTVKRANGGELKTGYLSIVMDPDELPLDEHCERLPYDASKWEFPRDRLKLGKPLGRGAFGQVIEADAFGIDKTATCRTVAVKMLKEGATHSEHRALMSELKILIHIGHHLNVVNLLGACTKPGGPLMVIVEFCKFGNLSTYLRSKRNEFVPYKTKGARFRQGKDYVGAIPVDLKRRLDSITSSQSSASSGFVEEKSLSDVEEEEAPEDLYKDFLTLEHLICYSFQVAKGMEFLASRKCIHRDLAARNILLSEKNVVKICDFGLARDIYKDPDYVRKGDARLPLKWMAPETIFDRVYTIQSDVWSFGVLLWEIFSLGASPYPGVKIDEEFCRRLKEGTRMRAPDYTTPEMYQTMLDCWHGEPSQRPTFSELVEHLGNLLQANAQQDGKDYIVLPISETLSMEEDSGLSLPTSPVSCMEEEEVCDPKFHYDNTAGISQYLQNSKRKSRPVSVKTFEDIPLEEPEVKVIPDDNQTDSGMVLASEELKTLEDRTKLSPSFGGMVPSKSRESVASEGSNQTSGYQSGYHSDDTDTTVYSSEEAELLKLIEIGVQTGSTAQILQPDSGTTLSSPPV
# Experiment: pVEGFR AlphaLISA assay (VEGFR-2 phosphorylation, p-Tyr1175) in HUVECs
# Assay type: cell-based
# Conditions: 10 minutes stimulation, % activity, maximum VEGF165a signal = 100%, unstimulated = 0%, peptide 1.25, 5, 20 nM (dimer structures 42-57)
# Description: To evaluate the VEGFR-2 activation ability of the VEGFR-2 agonist peptides of the present invention, VEGFR-2 phosphorylation was verified. HUVECs were cultured using EGM™ -2 Endothelial Cell Growth Medium-2 BulletKit (LONZA; CC-3162). After detaching cells using Tryple (Thermo Fisher Scientific), they were seeded into a 96-well PDL-coated plate (Corning: 354461) at a density of 24,000 cells per well and cultured for 2 days. For starvation, the medium was replaced with EBM-2 medium (LONZA) containing 0.5% FBS (Thermo Fisher Scientific), 0.1% heparin (included with the above LONZA CC-3162), and 0.1% gentamicin (Nacalai), and the cells were cultured for 18 hours. Subsequently, Recombinant Human VEGF165a Protein (R&D Systems) or the peptide was added, and the cells were cultured in a CO2 incubator at 37°C. After 10 minutes of stimulation, cells were lysed using the Lysis Buffer included in the AlphaLISA SureFire Ultra VEGFR-2 (p-Tyr1175) Assay Kit (PerkinElmer) to lyse the cells. The procedure was performed according to the kit protocol, and signal detection was performed using a SpectraMax Paradigm multimode microplate reader (Molecular Devices). The obtained signals were analyzed using GraphPad Prism, and % activity was calculated with the maximum signal induced by VEGF165a set as 100% and the unstimulated control as 0%.
# The VEGF165a concentration was evaluated at five points (0.08, 0.31, 1.25, 5, 20 nM) using 1/4-fold dilutions starting from 20 nM to determine the maximum value (100%). Peptide concentrations tested were: 3.2, 16, 80 nM for dimer structure number 1; 10, 100 nM for dimer structures numbers 2-41; and 1.25, 5, 20 nM for dimer structures numbers 42-57. […]
# Peptides showing 50% or more activity at 10 nM were designated 2-A, those showing 50% or more activity at 100 nM were designated 2-B, and those showing 1% or more but less than 50% activity at 100 nM were designated 2-C.
# Peptides showing 50% or more activity at 1.25 nM were designated 3-A, those showing 50% or more activity at 5 nM were designated 3-B, those showing 50% or more activity at 20 nM were designated 3-C, and those showing 1% or more but less than 50% activity at 20 nM were designated 3-D.
row,Compound,pVEGFR2 Assay Results
1,"CC(C)C[C@@H]1NC(=O)[C@H](CC(=O)O)NC(=O)[C@H](CC(=O)O)NC(=O)[C@H](CCCCNC(=O)CCOCCOCCOCCOCCOCCOCCOCCOCCOCCOCCOCCOCCOCCOCCOCCOCCOCCC(=O)NCCCC[C@@H]2NC(=O)[C@H](C(C)C)NC(=O)[C@H](CC(=O)O)NC(=O)[C@H](C(C)(C)C)NC(=O)[C@H](Cc3c[nH]c4ccccc34)NC(=O)[C@H](Cc3c[nH]c4ccccc34)NC(=O)CSC[C@@H](C(=O)NCC(N)=O)NC(=O)[C@H](CC(=O)O)NC(=O)[C@H](C(C)C)NC(=O)[C@H](Cc3ccc(NC(=N)N)cc3)NC(=O)[C@H](Cc3ccc(O)cc3)NC(=O)[C@H](CC(C)C)NC(=O)[C@H](CC(=O)O)NC(=O)[C@H](CC(=O)O)NC2=O)NC(=O)[C@H](C(C)C)NC(=O)[C@H](CC(=O)O)NC(=O)[C@H](C(C)(C)C)NC(=O)[C@H](Cc2c[nH]c3ccccc23)NC(=O)[C@H](Cc2c[nH]c3ccccc23)NC(=O)CSC[C@@H](C(=O)NCC(N)=O)NC(=O)[C@H](CC(=O)O)NC(=O)[C@H](C(C)C)NC(=O)[C@H](Cc2ccc(NC(=N)N)cc2)NC(=O)[C@H](Cc2ccc(O)cc2)NC1=O [compound 43] (I: {CH2CO}-WW[Tle]DVKDDLY[Phe(4-guanidino)]VDCG-NH2 / II: {CH2CO}-WW[Tle]DVKDDLY[Phe(4-guanidino)]VDCG-NH2; linker I:6-II:6 via CO(CH2)2(OCH2CH2)17CO; thioether I:N-I:14, II:N-II:14)",3-C (50% or more activity at 20 nM)
2,"CC(C)[C@@H]1NC(=O)[C@H](CC(=O)O)NC(=O)[C@H](CCc2ccc(O)cc2)NC(=O)[C@H](Cc2c[nH]c3ccccc23)NC(=O)[C@H](Cc2c[nH]c3ccccc23)NC(=O)CSC[C@@H](C(=O)NCC(N)=O)NC(=O)[C@H](CC(=O)O)NC(=O)[C@H](CCc2ccc(O)cc2)NC(=O)[C@H](Cc2ccc(NC(=N)N)cc2)NC(=O)[C@H](Cc2ccc(O)cc2)NC(=O)[C@H](CC(C)(C)C)NC(=O)[C@H](CC(=O)O)NC(=O)[C@H](CC(=O)O)NC(=O)[C@H](CCCCNC(=O)OCCOCCOCCOCCOCCOCCOCCOCCOCCOCCOCCOCCOC(=O)NCCCC[C@@H]2NC(=O)[C@H](C(C)C)NC(=O)[C@H](CC(=O)O)NC(=O)[C@H](CCc3ccc(O)cc3)NC(=O)[C@H](Cc3c[nH]c4ccccc34)NC(=O)[C@H](Cc3c[nH]c4ccccc34)NC(=O)CSC[C@@H](C(=O)NCC(N)=O)NC(=O)[C@H](CC(=O)O)NC(=O)[C@H](CCc3ccc(O)cc3)NC(=O)[C@H](Cc3ccc(NC(=N)N)cc3)NC(=O)[C@H](Cc3ccc(O)cc3)NC(=O)[C@H](CC(C)(C)C)NC(=O)[C@H](CC(=O)O)NC(=O)[C@H](CC(=O)O)NC2=O)NC1=O [compound 57] (I: {CH2CO}-WW[hTyr]DVKDD[tBuAla]Y[Phe(4-guanidino)][hTyr]DCG-NH2 / II: {CH2CO}-WW[hTyr]DVKDD[tBuAla]Y[Phe(4-guanidino)][hTyr]DCG-NH2; linker I:6-II:6 via X2; thioether I:N-I:14, II:N-II:14)",3-D (1% or more but less than 50% activity at 20 nM)

# Same assay, conditions: 10 minutes stimulation, % activity, maximum VEGF165a signal = 100%, unstimulated = 0%, peptide 10, 100 nM (dimer structures 2-41)
row,Compound,pVEGFR2 Assay Results
1,"CC(C)C[C@@H]1NC(=O)[C@H](CC(=O)O)NC(=O)[C@H](CC(=O)O)NC(=O)[C@H](CCC(N)=O)NC(=O)[C@H](C(C)C)NC(=O)[C@H](CC(=O)O)NC(=O)[C@H](C(C)C)NC(=O)[C@H](Cc2c[nH]c3ccccc23)NC(=O)[C@H](Cc2c[nH]c3ccccc23)NC(=O)CSC[C@@H](C(=O)NCC(=O)NCCOCCOCCOCCOCCOCCOCCOCCOCCOCCOCCOCCOCCC(=O)NCCCC[C@H](NC(=O)CCOCCOCCOCCOCCOCCOCCOCCOCCOCCOCCOCCOCCNC(=O)CNC(=O)[C@@H]2CSCC(=O)N[C@@H](Cc3c[nH]c4ccccc34)C(=O)N[C@@H](Cc3c[nH]c4ccccc34)C(=O)N[C@@H](C(C)C)C(=O)N[C@@H](CC(=O)O)C(=O)N[C@@H](C(C)C)C(=O)N[C@@H](CCC(N)=O)C(=O)N[C@@H](CC(=O)O)C(=O)N[C@@H](CC(=O)O)C(=O)N[C@@H](CC(C)C)C(=O)N[C@@H](Cc3ccc(O)cc3)C(=O)N[C@@H](Cc3ccccc3)C(=O)N[C@@H](C(C)C)C(=O)N[C@@H](CO)C(=O)N2)C(N)=O)NC(=O)[C@H](CO)NC(=O)[C@H](C(C)C)NC(=O)[C@H](Cc2ccccc2)NC(=O)[C@H](Cc2ccc(O)cc2)NC1=O [compound 11] (I: {CH2CO}-WWVDVQDDLYFVSCG[PEG12]K-NH2 / II: {CH2CO}-WWVDVQDDLYFVSCG[PEG12]; amide I:17-II:C; thioether I:N-I:14, II:N-II:14)",2-C (1% or more but less than 50% activity at 100 nM)
2,"CC(C)C[C@@H]1NC(=O)[C@H](CC(=O)O)NC(=O)[C@H](CC(=O)O)NC(=O)[C@H](CCCCNC(=O)CCOCCOCCOCCOCCOCCOCCOCCOCCOCCOCCOCCOCCOCCOCCOCCOCCOCCC(=O)NCCCC[C@@H]2NC(=O)[C@H](C(C)C)NC(=O)[C@H](CC(=O)O)NC(=O)[C@H](C(C)(C)C)NC(=O)[C@H](Cc3c[nH]c4ccccc34)NC(=O)[C@H](Cc3ccc(OCC(=O)O)cc3)NC(=O)CSC[C@@H](C(=O)NCC(N)=O)NC(=O)[C@H](CC(=O)O)NC(=O)[C@H](CCc3ccc(O)cc3)NC(=O)[C@H](Cc3ccccc3)NC(=O)[C@H](Cc3ccc(O)cc3)NC(=O)[C@H](CC(C)C)NC(=O)[C@H](CC(=O)O)NC(=O)[C@H](CC(=O)O)NC2=O)NC(=O)[C@H](C(C)C)NC(=O)[C@H](CC(=O)O)NC(=O)[C@H](C(C)(C)C)NC(=O)[C@H](Cc2c[nH]c3ccccc23)NC(=O)[C@H](Cc2ccc(OCC(=O)O)cc2)NC(=O)CSC[C@@H](C(=O)NCC(N)=O)NC(=O)[C@H](CC(=O)O)NC(=O)[C@H](CCc2ccc(O)cc2)NC(=O)[C@H](Cc2ccccc2)NC(=O)[C@H](Cc2ccc(O)cc2)NC1=O [compound 24] (I: {CH2CO}-Y(Carboxymethyl)W[Tle]DVKDDLYF[hTyr]DCG-NH2 / II: {CH2CO}-Y(Carboxymethyl)W[Tle]DVKDDLYF[hTyr]DCG-NH2; linker I:6-II:6 via CO(CH2)2(OCH2CH2)17CO; thioether I:N-I:14, II:N-II:14)",2-B (50% or more activity at 100 nM)
3,"CC(C)C[C@@H]1NC(=O)[C@H](CC(=O)O)NC(=O)[C@H](CC(=O)O)NC(=O)[C@H](CCCCNC(=O)CCOCCOCCOCCOCCOCCOCCOCCOCCOCCOCCOCCOCCOCCOCCOCCOCCOCCC(=O)NCCCC[C@@H]2NC(=O)[C@H](C(C)C)NC(=O)[C@H](CC(=O)O)NC(=O)[C@H](C3CCCCC3)NC(=O)[C@H](Cc3c[nH]c4ccccc34)NC(=O)[C@H](Cc3c[nH]c4ccccc34)NC(=O)CSC[C@@H](C(=O)NCC(N)=O)NC(=O)[C@H](CC(=O)O)NC(=O)[C@H](CCc3ccc(O)cc3)NC(=O)[C@H](Cc3ccccc3)NC(=O)[C@H](Cc3ccc(O)cc3)NC(=O)[C@H](CC(C)C)NC(=O)[C@H](CC(=O)O)NC(=O)[C@H](CC(=O)O)NC2=O)NC(=O)[C@H](C(C)C)NC(=O)[C@H](CC(=O)O)NC(=O)[C@H](C2CCCCC2)NC(=O)[C@H](Cc2c[nH]c3ccccc23)NC(=O)[C@H](Cc2c[nH]c3ccccc23)NC(=O)CSC[C@@H](C(=O)NCC(N)=O)NC(=O)[C@H](CC(=O)O)NC(=O)[C@H](CCc2ccc(O)cc2)NC(=O)[C@H](Cc2ccccc2)NC(=O)[C@H](Cc2ccc(O)cc2)NC1=O [compound 25] (I: {CH2CO}-WW[Chg]DVKDDLYF[hTyr]DCG-NH2 / II: {CH2CO}-WW[Chg]DVKDDLYF[hTyr]DCG-NH2; linker I:6-II:6 via CO(CH2)2(OCH2CH2)17CO; thioether I:N-I:14, II:N-II:14)",2-C (1% or more but less than 50% activity at 100 nM)
4,"CC(C)C[C@@H]1NC(=O)[C@H](CC(=O)O)NC(=O)[C@H](CC(=O)O)NC(=O)[C@H](CCCCNC(=O)CCOCCOCCOCCOCCOCCOCCOCCOCCOCCOCCOCCOCCOCCOCCOCCOCCOCCC(=O)NCCCC[C@@H]2NC(=O)[C@H](C(C)C)NC(=O)[C@H](CCC(N)=O)NC(=O)[C@H](C(C)(C)C)NC(=O)[C@H](Cc3c[nH]c4ccccc34)NC(=O)[C@H](Cc3c[nH]c4ccccc34)NC(=O)CSC[C@@H](C(=O)NCC(N)=O)NC(=O)[C@H](CC(=O)O)NC(=O)[C@H](CCc3ccc(O)cc3)NC(=O)[C@H](Cc3ccccc3)NC(=O)[C@H](Cc3ccc(O)cc3)NC(=O)[C@H](CC(C)C)NC(=O)[C@H](CC(=O)O)NC(=O)[C@H](CC(=O)O)NC2=O)NC(=O)[C@H](C(C)C)NC(=O)[C@H](CCC(N)=O)NC(=O)[C@H](C(C)(C)C)NC(=O)[C@H](Cc2c[nH]c3ccccc23)NC(=O)[C@H](Cc2c[nH]c3ccccc23)NC(=O)CSC[C@@H](C(=O)NCC(N)=O)NC(=O)[C@H](CC(=O)O)NC(=O)[C@H](CCc2ccc(O)cc2)NC(=O)[C@H](Cc2ccccc2)NC(=O)[C@H](Cc2ccc(O)cc2)NC1=O [compound 26] (I: {CH2CO}-WW[Tle]QVKDDLYF[hTyr]DCG-NH2 / II: {CH2CO}-WW[Tle]QVKDDLYF[hTyr]DCG-NH2; linker I:6-II:6 via CO(CH2)2(OCH2CH2)17CO; thioether I:N-I:14, II:N-II:14)",2-B (50% or more activity at 100 nM)
